pEC50: −log10 of the molar value. Where a name gives a salt, the structure may show the parent alone.
biological target: T1, human GYS1 (glycogen synthase) (Homo sapiens, UniProt P13807); test: Measurement of glycogen synthase activity; type: biochemical; settings: concentration causing 50% increase in relative activity; 100% = compound of Example 1 of WO/2011/058154 at 10 μM; 10 mM Glucose-6-phosphate; 37° C. for 25 minutes (Examples 1 to 61 and 67 to 82) or 20 minutes (Examples 62 to 66); absorbance at 340 nm
T1 construct: made in house; host or cells: HEK293T
T1 sequence (P13807 1-737): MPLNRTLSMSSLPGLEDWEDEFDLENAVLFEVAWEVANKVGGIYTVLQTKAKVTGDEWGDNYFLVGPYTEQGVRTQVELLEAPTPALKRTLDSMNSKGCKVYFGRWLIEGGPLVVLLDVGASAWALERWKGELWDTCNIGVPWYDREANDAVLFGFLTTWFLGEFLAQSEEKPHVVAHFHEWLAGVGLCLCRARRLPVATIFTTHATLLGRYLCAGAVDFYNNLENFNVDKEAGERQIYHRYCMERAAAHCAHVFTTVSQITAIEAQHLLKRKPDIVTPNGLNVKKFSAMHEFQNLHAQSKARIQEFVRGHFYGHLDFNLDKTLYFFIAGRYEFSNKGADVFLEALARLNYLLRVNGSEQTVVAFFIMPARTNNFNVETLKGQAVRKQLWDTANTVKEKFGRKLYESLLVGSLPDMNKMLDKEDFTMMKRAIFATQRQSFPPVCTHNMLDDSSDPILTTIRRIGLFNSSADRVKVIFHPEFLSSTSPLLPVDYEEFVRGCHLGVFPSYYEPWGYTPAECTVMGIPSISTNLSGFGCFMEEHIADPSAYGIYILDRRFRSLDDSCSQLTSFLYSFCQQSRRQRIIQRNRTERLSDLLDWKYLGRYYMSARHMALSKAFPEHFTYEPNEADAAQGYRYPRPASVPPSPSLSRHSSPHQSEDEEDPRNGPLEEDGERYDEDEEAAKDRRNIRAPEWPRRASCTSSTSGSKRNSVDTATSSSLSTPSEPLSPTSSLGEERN
Procedure: A human GYS1 expression plasmid (pCDNA3.1(+)-hGYS1) was constructed by the following method. By using a human skeletal muscle cDNA of Human MTC Panel I (Takara Bio Inc., 636742) as a template, a human GYS1 gene was amplified by a PCR method using cloning primers (Forward Primer: ATGCCTTTAAACCGCAC, Reverse Primer: TTAGTTACGCTCCTCGC). By using the amplified human GYS1 sequence as a template, restriction enzyme sequences were added by a PCR method using sub-cloning primers (Forward Primer: […], and Reverse Primer: […]), and then the human GYS1 gene was introduced between Xho I and Xba I sites of pCDNA3.1(+) (Invitrogen, V790-20).
Glycogen synthase was prepared by the following method. Human kidney-derived HEK293T cells were seeded in a dish (Thermo Fisher Scientific K.K., 168381) by using a 10% FBS-containing DMEM (Nacalai Tesque, Inc., 0845874) medium, and cultured overnight. Then, by using Lipofectamine LTX (Invitrogen, 15338-100), the cells were transfected with the human GYS1 expression vector according to the attached manual. After culturing under conditions of 37° C. and 5% CO2 for 2 days, the resultant was lysed in a lysis buffer (50 mM Tris-HCl (pH 8.0), 10 mM EDTA, 2 mM EGTA, 100 mM NaF, 1 mM PMSF, 1 mM DTT, and 1× Complete (Roche, 1873580)), homogenized, and then centrifuged at 16000×g at 4° C. for 15 minutes. The precipitated fraction re-dissolved by adding the lysis buffer was used as a glycogen synthase for evaluation.
The glycogen synthase activity was measured by the following method. To a polystyrene 96-well plate, solutions each containing 30 mM glycylglycine (pH 7.3), 40 mM KCl, 20 mM MgCl2, 9.2% DMSO containing one of the test compounds at one of various concentrations, and 10 mM Glucose-6-phosphate (Sigma-Aldrich, G7879) were added at 12 μL/well.
Next, a substrate solution containing 30 mM glycylglycine (pH 7.3), 4.3 mg/mL glycogen (Sigma-Aldrich, G8876), 21.6 mM UDP-glucose (Sigma-Aldrich, U4625), 21.6 mM phosphoenolpyruvic acid (Sigma-Aldrich, P0564), and 4.05 mM NADH (Sigma-Aldrich, N8129) was added at 18 μL/well.
Moreover, an enzyme solution containing 50 mM Tris-HCl (pH 8.0), 27 mM DTT (NACALAI TESQUE, INC., 14128-04), 0.2 mg/mL bovine serum albumin, 0.17 mg/mL glycogen synthase, and 1.5 μL pyruvate kinase/lactate dehydrogenase solution (Sigma-Aldrich, P0294) was added at 18 μL/well to prepare reaction solutions. After the reaction solutions were incubated (at 37° C. for 25 minutes for Examples 1 to 61 and 67 to 82 or at 37° C. for 20 minutes for Examples 62 to 66), the absorbance at 340 nm was measured by using Benchmark Plus (Bio-Rad Laboratories, Inc.).
The activity of each test compound was calculated by the following method. The absorbance at 340 nm of the reaction solution containing the compound and DMSO was subtracted from the absorbance at 340 nm of a reaction solution not containing the compound but containing only DMSO to calculate the change (ΔA340) in absorbance. The relative activity (%) of the test compound at each of the various concentrations was calculated, where the ΔA340 of a reaction solution containing the compound of Example 1 of WO/2011/058154 at a final concentration of 10 μM was taken as 100%. EC50 representing the concentration of the compound at which an increase in the relative activity by 50% was caused was calculated using XLfit (idbs).

Row | pEC50 | Structure (SMILES)
1 | 8.11 | COC(C)CN(CC(=O)O)C(=O)c1cccc(COc2ccc(-c3cc(F)c(F)cc3SC)cc2)c1 (stereo not shown) [Example 45, 2-[[3-[[4-(4,5-Difluoro-2-methylsulfanyl-phenyl)phenoxy]methyl]benzoyl]-(2-methoxypropyl)amino]acetic Acid]
2 | 7.60 | CSc1cc(F)c(F)cc1-c1ccc(OCc2cccc(C(=O)N(CC(=O)O)CC3CCS(=O)(=O)C3)c2)cc1 (stereo not shown) [Example 46, 2-[[3-[[4-(4,5-Difluoro-2-methylsulfanyl-phenyl)phenoxy]methyl]benzoyl]-[(1,1-dioxothiolan-3-yl)methyl]amino]acetic Acid]
3 | 7.74 | CSc1cc(F)c(F)cc1-c1ccc(OCc2cccc(C(=O)N(CC(=O)O)Cc3cnco3)c2)cc1 [Example 47, 2-[[3-[[4-(4,5-Difluoro-2-methylsulfanyl-phenyl)phenoxy]methyl]benzoyl]-(oxazol-5-ylmethyl)amino]acetic Acid]
4 | 7.89 | CSc1cc(F)c(F)cc1-c1ccc(OCc2cccc(C(=O)N(CC(=O)O)[C@H]3CC[C@@H](N)CC3)c2)cc1 [Example 48, 2-[(4-Aminocyclohexyl)-[3-[[4-(4,5-difluoro-2-methylsulfanyl-phenyl)phenoxy]methyl]benzoyl]amino]acetic Acid Trifluoroacetate]
5 | 8.02 | COCCOCCN(CC(=O)O)C(=O)c1cccc(COc2ccc(-c3cc(F)c(F)cc3SC)cc2)c1 [Example 49, 2-[[3-[[4-(4,5-Difluoro-2-methylsulfanyl-phenyl)phenoxy]methyl]benzoyl]-[2-(2-methoxyethoxy)ethyl]amino]acetic Acid]
6 | 8.20 | CSc1cc(F)c(F)cc1-c1ccc(OCc2cccc(C(=O)N(CC(=O)O)CC3CCCNC3)c2)cc1 (stereo not shown) [Example 50, 2-[[3-[[4-(4,5-Difluoro-2-methylsulfanyl-phenyl)phenoxy]methyl]benzoyl]-(3-piperidylmethyl)amino]acetic Acid Trifluoroacetate]
7 | 8.28 | CSc1cc(F)c(F)cc1-c1ccc(OCc2cccc(C(=O)N(CCS(N)(=O)=O)CC(=O)O)c2)cc1 [Example 51, 2-[[3-[[4-(4,5-Difluoro-2-methylsulfanyl-phenyl)phenoxy]methyl]benzoyl]-(2-sulfamoylethyl)amino]acetic Acid]
8 | 8.36 | CSc1cc(F)c(F)cc1-c1ccc(OCc2cccc(C(=O)N(CC(=O)O)Cc3cocn3)c2)cc1 [Example 52, 2-[[3-[[4-(4,5-Difluoro-2-methylsulfanyl-phenyl)phenoxy]methyl]benzoyl]-(oxazol-4-ylmethyl)amino]acetic Acid]
9 | 8.10 | CSc1cc(F)c(F)cc1-c1ccc(OCc2cccc(C(=O)N(CC(=O)O)Cc3ccncn3)c2)cc1 [Example 53, 2-[[3-[[4-(4,5-Difluoro-2-methylsulfanyl-phenyl)phenoxy]methyl]benzoyl]-(pyrimidin-4-ylmethyl)amino]acetic Acid]
10 | 7.82 | CSc1cc(F)c(F)cc1-c1ccc(OCc2cccc(C(=O)N(CC(=O)O)Cc3ccn[nH]3)c2)cc1 [Example 54, 2-[[3-[[4-(4,5-Difluoro-2-methylsulfanyl-phenyl)phenoxy]methyl]benzoyl]-(1H-pyrazol-5-ylmethyl)amino]acetic Acid]
11 | 7.66 | CSc1cc(F)c(F)cc1-c1ccc(OCc2cccc(C(=O)N(CC(=O)O)Cc3ccnn3C)c2)cc1 [Example 55, 2-[[3-[[4-(4,5-Difluoro-2-methylsulfanyl-phenyl)phenoxy]methyl]benzoyl]-[(2-methylpyrazol-3-yl)methyl]amino]acetic Acid]

Second part, the molecule before the results:

Row | Structure (SMILES) | pEC50
12 | CSc1cc(F)c(F)cc1-c1ccc(OCc2cccc(C(=O)N(CC(=O)O)CC3CCN(C)CC3)c2)cc1 [Example 37, 2-[[3-[[4-(4,5-Difluoro-2-methylsulfanyl-phenyl)phenoxy]methyl]benzoyl]-[(1-methyl-4-piperidyl)methyl]amino]acetic Acid Trifluoroacetate] | 7.64
13 | CCN1CCC(CN(CC(=O)O)C(=O)c2cccc(COc3ccc(-c4cc(F)c(F)cc4SC)cc3)c2)CC1 [Example 38, 2-[[3-[[4-(4,5-Difluoro-2-methylsulfanyl-phenyl)phenoxy]methyl]benzoyl]-[(1-ethyl-4-piperidyl)methyl]amino]acetic Acid Trifluoroacetate] | 7.72
14 | CSc1cc(F)c(F)cc1-c1ccc(OCc2cccc(C(=O)N(CC(=O)O)Cc3cccnc3)c2)cc1 [Example 39, 2-[[3-[[4-(4,5-Difluoro-2-methylsulfanyl-phenyl)phenoxy]methyl]benzoyl]-(3-pyridylmethyl)amino]acetic Acid Trifluoroacetate] | 7.68
15 | CSc1cc(F)c(F)cc1-c1ccc(OCc2cccc(C(=O)N(CCN3CCCC3)CC(=O)O)c2)cc1 [Example 40, 2-[[3-[[4-(4,5-Difluoro-2-methylsulfanyl-phenyl)phenoxy]methyl]benzoyl]-(2-pyrrolidin-1-ylethyl)amino]acetic Acid Trifluoroacetate] | 7.62
16 | CSc1cc(F)c(F)cc1-c1ccc(OCc2cccc(C(=O)N(CCN3CCS(=O)(=O)CC3)CC(=O)O)c2)cc1 [Example 41, 2-[[3-[[4-(4,5-Difluoro-2-methylsulfanyl-phenyl)phenoxy]methyl]benzoyl]-[2-(1,1-dioxo-1,4-thiazinan-4-yl)ethyl]amino]acetic Acid Trifluoroacetate] | 7.68
17 | CSc1cc(F)c(F)cc1-c1ccc(OCc2cccc(C(=O)N(CC(=O)O)Cc3ncco3)c2)cc1 [Example 42, 2-[[3-[[4-(4,5-Difluoro-2-methylsulfanyl-phenyl)phenoxy]methyl]benzoyl]-(oxazol-2-ylmethyl)amino]acetic Acid] | 7.72
18 | CCNCCN(CC(=O)O)C(=O)c1cccc(COc2ccc(-c3cc(F)c(F)cc3SC)cc2)c1 [Example 43, 2-[[3-[[4-(4,5-Difluoro-2-methylsulfanyl-phenyl)phenoxy]methyl]benzoyl]-[2-(ethylamino)ethyl]amino]acetic Acid Trifluoroacetate] | 7.72
19 | CSc1cc(F)c(F)cc1-c1ccc(OCc2cccc(C(=O)N(CCNC(C)=O)CC(=O)O)c2)cc1 [Example 44, 2-[2-Acetamidoethyl-[3-[[4-(4,5-difluoro-2-methylsulfanyl-phenyl)phenoxy]methyl]benzoyl]amino]acetic Acid] | 7.60

Source: patent US20160046592A1, “PHARMACEUTICAL COMPOSITION FOR THE TREATMENT OF DIABETES” (Ajinomoto Co., Inc., priority 2013, published 2016)
